Consider four compounds from ChEMBL document CHEMBL6087476, “Positive Charge-Concentrated Dimeric Lipopeptides with Enhanced Protease Resistance: A Potential Solution for Systemic Bacterial Infections” (J Med Chem, 2025).

In brackets after ≈: the same amount, converted by molar mass. A value given as a limit tells only on which side of the number the result lay.

Format in all cases: functional
Experiment [1] deals with Acinetobacter baumannii. The experiment is described as follows: Antimicrobial activity against Acinetobacter baumannii AB1901 assessed as increase in absorbance incubated for 20 to 22 hrs. The following applies: time 20-22 hrs.
Another experiment deals with Staphylococcus aureus. The experiment is described as follows: Antimicrobial activity against Staphylococcus aureus 11011 assessed as increase in absorbance incubated for 20 to 22 hrs. The settings on record: time 20-22 hrs.
A further experiment relates to Pseudomonas aeruginosa. The experiment can be described thus: Antimicrobial activity against Pseudomonas aeruginosa 25349 assessed as increase in absorbance incubated for 20 to 22 hrs. The settings on record: time 20-22 hrs.
In experiment [2] the test system is Acinetobacter baumannii. The experiment can be described thus: Antimicrobial activity against Acinetobacter baumannii AB1902 assessed as increase in absorbance incubated for 20 to 22 hrs. The following applies: time 20-22 hrs.
In another experiment the test system is Escherichia coli. The experiment can be described thus: Resistance fold, ratio of MIC for Escherichia coli ATCC 25922 measured after 7 day passage period to MIC for Escherichia coli ATCC 25922.

In general, MIC refers to the lowest concentration that inhibits growth of the organism. Take `CN[C@H](CC(C)C)C(=O)N[C@H]1C(=O)N[C@@H](CC(N)=O)C(=O)N[C@H]2C(=O)N[C@H]3C(=O)N[C@H](C(=O)N[C@H](C(=O)O)c4cc(O)cc(O)c4-c4cc3ccc4O)[C@H](O)c3ccc(c(Cl)c3)Oc3cc2cc(c3O[C@@H]2O[C@H](CO)[C@@H](O)[C@H](O)[C@H]2O[C@H]2C[C@](C)(N)[C@H](O)[C@H](C)O2)Oc2ccc(cc2Cl)[C@H]1O` [VANCOMYCIN]: the MIC in the experiment with Acinetobacter baumannii [1] was 32 µM (≈ 46.4 µg/mL); in the experiment on Staphylococcus aureus it was > 64 µM; in the experiment with Pseudomonas aeruginosa it was > 64 µM; in the experiment on Acinetobacter baumannii [2], > 64 µM.
Consider `CC1(C)S[C@@H]2[C@H](NC(=O)Cc3ccccc3)C(=O)N2[C@H]1C(=O)O` [PENICILLIN G SODIUM], for which the MIC with Acinetobacter baumannii [1] was 64 µM; in the experiment on Staphylococcus aureus it was > 64 µM; with Pseudomonas aeruginosa it was > 64 µM; in the experiment with Acinetobacter baumannii [2], > 64 µM.
With `CC[C@H]1OC(=O)[C@H](C)[C@@H](O[C@H]2C[C@@](C)(OC)[C@@H](O)[C@H](C)O2)[C@H](C)[C@@H](O[C@@H]2O[C@H](C)C[C@H](N(C)C)[C@H]2O)[C@](C)(O)C[C@@H](C)C(=O)[C@H](C)[C@@H](O)[C@]1(C)O` [ERYTHROMYCIN], the MIC in the experiment on Acinetobacter baumannii [1] was 64 µM (≈ 47 µg/mL); in the experiment on Staphylococcus aureus, > 64 µM; in the experiment on Pseudomonas aeruginosa it was 64 µM (≈ 47 µg/mL); in the experiment with Acinetobacter baumannii [2] it was > 64 µM.
Take `CN(C)[C@@H]1C(O)=C(C(N)=O)C(=O)[C@@]2(O)C(O)=C3C(=O)c4c(O)cccc4[C@@](C)(O)[C@H]3C[C@@H]12` [TETRACYCLINE]: in the experiment on Escherichia coli, the “fold change (FC)” value came to 8.
